Patent US20040156869A1, “2-substituted quinazolin-4-ylamine analogues” (Neurogen Corporation, priority 2002, published 2004)

biological target: human capsaicin receptor (VR1) (Homo sapiens, UniProt Q8NER1); test: Capsaicin receptor binding assay ([3H]RTX competition, VR1-transfected HEK293 membranes); conditions: not given
Sequence (Q8NER1 whole entry): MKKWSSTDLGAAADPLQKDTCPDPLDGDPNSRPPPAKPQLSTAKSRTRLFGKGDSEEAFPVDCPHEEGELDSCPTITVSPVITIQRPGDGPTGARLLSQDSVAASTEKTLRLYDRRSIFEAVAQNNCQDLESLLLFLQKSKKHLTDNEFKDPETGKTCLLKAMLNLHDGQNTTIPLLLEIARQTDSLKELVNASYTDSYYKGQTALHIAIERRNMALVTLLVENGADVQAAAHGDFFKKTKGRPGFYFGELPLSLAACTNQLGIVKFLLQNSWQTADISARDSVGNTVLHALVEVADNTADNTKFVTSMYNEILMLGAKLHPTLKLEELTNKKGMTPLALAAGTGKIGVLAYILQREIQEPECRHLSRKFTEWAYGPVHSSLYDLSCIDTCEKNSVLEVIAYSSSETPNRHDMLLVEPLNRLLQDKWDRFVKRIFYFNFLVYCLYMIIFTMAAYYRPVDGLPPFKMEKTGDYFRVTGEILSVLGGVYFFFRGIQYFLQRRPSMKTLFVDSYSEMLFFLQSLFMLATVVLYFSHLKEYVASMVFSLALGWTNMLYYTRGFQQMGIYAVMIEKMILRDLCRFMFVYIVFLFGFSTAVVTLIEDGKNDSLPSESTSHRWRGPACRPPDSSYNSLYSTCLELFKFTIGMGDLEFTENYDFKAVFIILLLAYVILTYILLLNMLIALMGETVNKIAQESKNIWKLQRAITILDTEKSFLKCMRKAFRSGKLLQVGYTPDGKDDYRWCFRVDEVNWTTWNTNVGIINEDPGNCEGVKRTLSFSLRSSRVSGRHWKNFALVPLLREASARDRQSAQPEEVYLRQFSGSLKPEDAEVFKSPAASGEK

Ki, < 1000 nM:
COCc1cc(Nc2ccc(Cl)c(F)c2)c2ccc(-c3ncccc3C(F)(F)F)nc2n1 [Compound 304, (4-Chloro-3-fluoro-phenyl)-[2-methoxymethyl-7-(3-trifluoromethyl-pyridin-2-yl)-[1,8]naphthyridin-4-yl]-amine]
COCc1cc(Nc2ccc(C#N)cc2)c2ccc(-c3ncccc3C(F)(F)F)nc2n1 [Compound 305, 4-[2-Methoxymethyl-7-(3-trifluoromethyl-pyridin-2-yl)-[1,8]naphthyridin-4-ylamino]-benzonitrile]
COCc1cc(Nc2ccc(S(=O)(=O)C(C)C)cc2)c2ccc(-c3ncccc3C(F)(F)F)nc2n1 [Compound 306, [2-Methoxymethyl-7-(3-trifluoromethyl-pyridin-2-yl)-[1,8]naphthyridin-4-yl]-[4-(propane-2-sulfonyl)-phenyl]-amine]
COCc1cc(Nc2ccc(C(F)(F)F)cn2)c2ccc(-c3ncccc3C(F)(F)F)nc2n1 [Compound 307, [2-Methoxymethyl-7-(3-trifluoromethyl-pyridin-2-yl)-[1,8]naphthyridin-4-yl]-(5-trifluoromethyl-pyridin-2-yl)-amine]
COCc1cc(Nc2ccc(S(=O)(=O)C(F)(F)F)cc2)c2ccc(-c3ncccc3C(F)(F)F)nc2n1 [Compound 308, [2-Methoxymethyl-7-(3-trifluoromethyl-pyridin-2-yl)-[1,8]naphthyridin-4-yl]-(4-trifluoromethanesulfonyl-phenyl)-amine]
CN(C)CCOCc1cc(Nc2ccc(C(F)(F)F)cc2)c2ccc(-c3ncccc3C(F)(F)F)nc2n1 [Compound 309, [2-(2-Dimethylamino-ethoxymethyl)-7-(3-trifluoromethyl-pyridin-2-yl)-[1,8]naphthyridin-4-yl]-(4-trifluoromethyl-phenyl)-amine]
CCOCc1cc(Nc2ccc(C(F)(F)F)cc2)c2ccc(-c3ncccc3C(F)(F)F)nc2n1 [Compound 310, [2-Ethoxymethyl-7-(3-trifluoromethyl-pyridin-2-yl)-[1,8]naphthyridin-4-yl]-(4-trifluoromethyl-phenyl)-amine]
CC(C)OCc1cc(Nc2ccc(C(F)(F)F)cc2)c2ccc(-c3ncccc3C(F)(F)F)nc2n1 [Compound 311, [2-Isopropoxymethyl-7-(3-trifluoromethyl-pyridin-2-yl)-[1,8]naphthyridin-4-yl]-(4-trifluoromethyl-phenyl)-amine]
CC(C)CCOCc1cc(Nc2ccc(C(F)(F)F)cc2)c2ccc(-c3ncccc3C(F)(F)F)nc2n1 [Compound 312, [2-(3-Methyl-butoxymethyl)-7-(3-trifluoromethyl-pyridin-2-yl)-[1,8]naphthyridin-4-yl]-(4-trifluoromethyl-phenyl)-amine]
CCCOCc1cc(Nc2ccc(C(F)(F)F)cc2)c2ccc(-c3ncccc3C(F)(F)F)nc2n1 [Compound 313, [2-Propoxymethyl-7-(3-trifluoromethyl-pyridin-2-yl)-[1,8]naphthyridin-4-yl]-(4-trifluoromethyl-phenyl)-amine]
CC(C)COCc1cc(Nc2ccc(C(F)(F)F)cn2)c2ccc(-c3ncccc3C(F)(F)F)nc2n1 [Compound 314, [2-Isobutoxymethyl-7-(3-trifluoromethyl-pyridin-2-yl)-[1,8]naphthyridin-4-yl]-(5-trifluoromethyl-pyridin-2-yl)-amine]
CC(c1ccccc1)N(C)Cc1nc(Nc2ccc(C(F)(F)F)cc2)c2ccc(-c3ncccc3C(F)(F)F)cc2n1 (centres unmarked) [Compound 323, [2-{[Methyl-(1-phenyl-ethyl)-amino]-methyl}-7-(3-trifluoromethyl-pyridin-2-yl)-quinazolin-4-yl]-(4-trifluoromethyl-phenyl)-amine]
CN(Cc1nc(Nc2ccc(C(F)(F)F)cc2)c2ccc(-c3ncccc3C(F)(F)F)cc2n1)C1CCc2ccccc21 (centres unmarked) [Compound 324, [2-[(Indan-1-yl-methyl-amino)-methyl]-7-(3-trifluoromethyl-pyridin-2-yl)-quinazolin-4-yl]-(4-trifluoromethyl-phenyl)-amine]
CCCN(C)Cc1nc(Nc2ccc(C(F)(F)F)cc2)c2ccc(-c3ncccc3C(F)(F)F)cc2n1 [Compound 330]
CCCCN(C)Cc1nc(Nc2ccc(C(F)(F)F)cc2)c2ccc(-c3ncccc3C(F)(F)F)cc2n1 [Compound 331]
CCN(Cc1nc(Nc2ccc(C(F)(F)F)cc2)c2ccc(-c3ncccc3C(F)(F)F)cc2n1)C(C)C [Compound 332]
C=CCN(CC=C)Cc1nc(Nc2ccc(C(F)(F)F)cc2)c2ccc(-c3ncccc3C(F)(F)F)cc2n1 [Compound 333]
CCCCN(CC)Cc1nc(Nc2ccc(C(F)(F)F)cc2)c2ccc(-c3ncccc3C(F)(F)F)cc2n1 [Compound 334]
CCCCCCN(C)Cc1nc(Nc2ccc(C(F)(F)F)cc2)c2ccc(-c3ncccc3C(F)(F)F)cc2n1 [Compound 336]
CC(C)N(C)Cc1nc(Nc2ccc(C(F)(F)F)cc2)c2ccc(-c3ncccc3C(F)(F)F)cc2n1 [Compound 338]
COCCN(CCOC)Cc1nc(Nc2ccc(C(F)(F)F)cc2)c2ccc(-c3ncccc3C(F)(F)F)cc2n1 [Compound 344, [2-{[Bis-(2-methoxy-ethyl)-amino]-methyl}-7-(3-trifluoromethyl-pyridin-2-yl)-quinazolin-4-yl]-(4-trifluoromethyl-phenyl)-amine]
CCCCCN(CCCCC)Cc1nc(Nc2ccc(C(F)(F)F)cc2)c2ccc(-c3ncccc3C(F)(F)F)cc2n1 [Compound 345, [2-Dipentylaminomethyl-7-(3-trifluoromethyl-pyridin-2-yl)-quinazolin-4-yl]-(4-trifluoromethyl-phenyl)-amine]
CCCCCCN(CCCCCC)Cc1nc(Nc2ccc(C(F)(F)F)cc2)c2ccc(-c3ncccc3C(F)(F)F)cc2n1 [Compound 346, [2-Dihexylaminomethyl-7-(3-trifluoromethyl-pyridin-2-yl)-quinazolin-4-yl]-(4-trifluoromethyl-phenyl)-amine]
CC(c1ccccc1)N(C)Cc1nc(Nc2ccc(C(F)(F)F)nc2)c2ccc(-c3ncccc3C(F)(F)F)cc2n1 (centres unmarked) [Compound 348, [2-{[Methyl-(1-phenyl-ethyl)-amino]-methyl}-7-(3-trifluoromethyl-pyridin-2-yl)-quinazolin-4-yl]-(6-trifluoromethyl-pyridin-3-yl)-amine]
CN(Cc1nc(Nc2ccc(C(F)(F)F)nc2)c2ccc(-c3ncccc3C(F)(F)F)cc2n1)C1CCc2ccccc21 (centres unmarked) [Compound 349, [2-[(Indan-1-yl-methyl-amino)-methyl]-7-(3-trifluoromethyl-pyridin-2-yl)-quinazolin-4-yl]-(6-trifluoromethyl-pyridin-3-yl)-amine]

same assay, conditions: Table III; [3H]RTX competition binding, capsaicin receptor

Ki, < 1000 nM:
CC1CC(C)CN(Cc2nc(Nc3ccc(C(F)(F)F)cc3)c3ccc(-c4ncccc4C(F)(F)F)cc3n2)C1 (centres unmarked) [Compound 347, [2-(3,5-Dimethyl-piperidin-1-ylmethyl)-7-(3-trifluoromethyl-pyridin-2-yl)-quinazolin-4-yl]-(4-trifluoromethyl-phenyl)-amine]
